Key:
A375P tumor cells = experiment: Cell growth inhibition assay (CellTiter-Glo), A375P; details: Homo sapiens, 72 h, read-out: Activity in A375P Tumor Cells;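 further: total ATP luminescence used as proxy for cell number, serial threefold compound dilutions at 0.2% DMSO, growth inhibition expressed versus DMSO vehicle-treated wells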
SK-MEL-28 tumor cells = experiment: Cell growth inhibition assay (CellTiter-Glo), SK-MEL-28; details: Homo sapiens, SK-MEL-28, 72 h, read-out: Activity in SK-MEL-28 Tumor Cells;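 further: luminescent total ATP as a proxy for cell number, threefold serial dilutions at 0.2% DMSO, percent growth inhibition versus DMSO vehicle control wells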
Colo205 tumor cells = experiment: Cell growth inhibition assay (CellTiter-Glo), Colo205; details: Homo sapiens, COLO 205, 72 h, read-out: Activity in Colo205 Tumor Cells;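 further: growth measured via total ATP luminescence (CellTiter-Glo) as a proxy for cell number, inhibition expressed against DMSO-treated control wells, 3-day exposure at 0.2% final DMSO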
ErbB2 = ErbB2 (Homo sapiens, UniProt P04626); experiment: ErbB2 kinase autophosphorylation assay (peptide phosphorylation, HTRF); format: biochemical; details: 10 nM ErbB2, HTRF; class by pIC50
ErbB2, sequence (P04626 23-1255): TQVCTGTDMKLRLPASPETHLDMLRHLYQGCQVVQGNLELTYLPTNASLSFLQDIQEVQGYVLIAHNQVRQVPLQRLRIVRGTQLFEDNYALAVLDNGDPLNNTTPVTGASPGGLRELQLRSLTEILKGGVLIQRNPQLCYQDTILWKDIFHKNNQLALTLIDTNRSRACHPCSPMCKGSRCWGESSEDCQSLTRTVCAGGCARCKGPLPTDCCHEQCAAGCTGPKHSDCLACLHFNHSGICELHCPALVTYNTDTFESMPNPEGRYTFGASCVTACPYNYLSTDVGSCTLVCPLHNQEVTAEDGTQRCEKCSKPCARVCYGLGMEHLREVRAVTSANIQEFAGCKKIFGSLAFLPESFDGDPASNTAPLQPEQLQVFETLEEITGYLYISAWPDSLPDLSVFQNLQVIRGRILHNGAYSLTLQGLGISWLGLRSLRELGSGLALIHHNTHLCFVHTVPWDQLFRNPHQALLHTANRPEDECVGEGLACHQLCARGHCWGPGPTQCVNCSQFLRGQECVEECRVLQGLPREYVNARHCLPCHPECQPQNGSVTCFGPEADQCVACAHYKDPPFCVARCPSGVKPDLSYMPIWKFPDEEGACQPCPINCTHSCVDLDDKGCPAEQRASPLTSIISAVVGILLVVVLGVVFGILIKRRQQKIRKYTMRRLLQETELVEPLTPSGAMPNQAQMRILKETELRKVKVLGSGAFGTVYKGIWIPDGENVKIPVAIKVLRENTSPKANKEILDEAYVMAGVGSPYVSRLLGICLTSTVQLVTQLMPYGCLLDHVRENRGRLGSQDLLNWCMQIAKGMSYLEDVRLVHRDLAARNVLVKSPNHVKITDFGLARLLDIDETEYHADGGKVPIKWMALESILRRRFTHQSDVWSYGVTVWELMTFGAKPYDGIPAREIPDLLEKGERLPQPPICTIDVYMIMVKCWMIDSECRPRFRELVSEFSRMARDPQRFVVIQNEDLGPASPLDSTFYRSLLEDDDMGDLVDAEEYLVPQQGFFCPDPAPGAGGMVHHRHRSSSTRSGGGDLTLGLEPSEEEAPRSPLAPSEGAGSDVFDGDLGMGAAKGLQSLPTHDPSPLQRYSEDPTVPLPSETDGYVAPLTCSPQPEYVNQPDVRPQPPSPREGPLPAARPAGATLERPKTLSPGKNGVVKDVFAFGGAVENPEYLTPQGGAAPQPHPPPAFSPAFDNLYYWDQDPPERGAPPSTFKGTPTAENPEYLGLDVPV
Procedure: (§1) A selection of compounds of the present invention were tested for inhibitory activity against EGFR and ErbB2 kinases in autophosphorylation assays.
(§2) The method measures the ability of the isolated enzyme to catalyse the transfer of the gamma-phosphate from ATP onto the tyrosine residue of a biotinylated synthetic peptide referenced “Peptide C” in Brignola, P. S., et al, (2002) J. Biol. Chem. 277(2):1576-1585. The extent of tyrosine phosphorylation was measured using an anti-phosphotyrosine antibody, and quantified by homogenous time-resolved fluorescence (HTRF).
(§3) Reactions were performed in black 384-well polystyrene flat-bottom plates in a final volume of 20 ul. Assays were performed by adding 10 μl of each of the following solutions, substrate Mix and enzyme mix: The Substrate mix contained 100 mM 3-[N-morpholino]propanesulfonic acid (MOPS) (pH 7.5), 2 mM MnCl2, 20 μM ATP, 0.01% Tween-20, 0.1 mg/mL (BSA), 0.8 uM peptide substrate, and 1 mM dithiothreitol. The enzyme mix contained 100 mM MOPS (pH7.5); 0.01% Tween-20; 0.1 mg/mL BSA, and either 0.8 nM EGFR, 10 nM ErbB2, or 1 nM ErbB4
(§4) The enzyme mix was added to the compound plates and the plates were incubated at 20° C. for 1 hour. The reactions were allowed to proceed for 90 minutes at 20° C. The reactions were then terminated by the addition of 20 μl 100 mM EDTA to each well. 40 μl/well of HTRF detection mix were added to the assay plates. The final concentrations of the detection reagents were: 100 mM HEPES (pH7.5), 0.1 mg/mL BSA, 15 nM streptavidin-labeled allophycocyanin (PerkinElmer), and 1 nM europium-labeled anti-phosphotyrosine antibody (PerkinElmer). Assay plates were left unsealed and were counted in a Wallac Multilabel Counter 1420 (PerkinElmer).
(§5) Compounds under analysis were dissolved in Me2SO to 1.0 mM and serially diluted 1 to 3 with Me2SO through twelve dilutions. 1 μl of each concentration was transferred to the corresponding well of an assay plate. This creates a final compound concentration range from 0.00027 to 47.6 μM.
(§6) The data for dose responses were plotted as % Inhibition calculated with the data reduction formula 100*(1−(U1−C2)/(C1−C2)) versus concentration of compound where U is the unknown value, C1 is the average control value obtained for 4.76% DMSO, and C2 is the average control value obtained for 0.035 M EDTA. Data were fitted with a curve described by:
(§7) where Vmax is the upper asymptote, Y2 is the Y intercept, and K is the IC50. The results for each compound were recorded as pIC50s, calculated as follows: […]
(§8) In the following table: • “+” indicates no pIC50 measurement greater than 6 against EGFR or ErbB2, • “++” indicates at least one pIC50 measurement greater than 6 against EGFR or ErbB2 but no measurement greater than pIC50 of 7; and • “+++” indicates at least one pIC50 measurement of greater than 7 against EGFR or ErbB2.

EGFR = EGFR (Homo sapiens, UniProt P00533); experiment: EGFR kinase autophosphorylation assay (peptide phosphorylation, HTRF); format: biochemical; details: 0.8 nM EGFR, class by pIC50
EGFR, sequence (P00533 25-1210): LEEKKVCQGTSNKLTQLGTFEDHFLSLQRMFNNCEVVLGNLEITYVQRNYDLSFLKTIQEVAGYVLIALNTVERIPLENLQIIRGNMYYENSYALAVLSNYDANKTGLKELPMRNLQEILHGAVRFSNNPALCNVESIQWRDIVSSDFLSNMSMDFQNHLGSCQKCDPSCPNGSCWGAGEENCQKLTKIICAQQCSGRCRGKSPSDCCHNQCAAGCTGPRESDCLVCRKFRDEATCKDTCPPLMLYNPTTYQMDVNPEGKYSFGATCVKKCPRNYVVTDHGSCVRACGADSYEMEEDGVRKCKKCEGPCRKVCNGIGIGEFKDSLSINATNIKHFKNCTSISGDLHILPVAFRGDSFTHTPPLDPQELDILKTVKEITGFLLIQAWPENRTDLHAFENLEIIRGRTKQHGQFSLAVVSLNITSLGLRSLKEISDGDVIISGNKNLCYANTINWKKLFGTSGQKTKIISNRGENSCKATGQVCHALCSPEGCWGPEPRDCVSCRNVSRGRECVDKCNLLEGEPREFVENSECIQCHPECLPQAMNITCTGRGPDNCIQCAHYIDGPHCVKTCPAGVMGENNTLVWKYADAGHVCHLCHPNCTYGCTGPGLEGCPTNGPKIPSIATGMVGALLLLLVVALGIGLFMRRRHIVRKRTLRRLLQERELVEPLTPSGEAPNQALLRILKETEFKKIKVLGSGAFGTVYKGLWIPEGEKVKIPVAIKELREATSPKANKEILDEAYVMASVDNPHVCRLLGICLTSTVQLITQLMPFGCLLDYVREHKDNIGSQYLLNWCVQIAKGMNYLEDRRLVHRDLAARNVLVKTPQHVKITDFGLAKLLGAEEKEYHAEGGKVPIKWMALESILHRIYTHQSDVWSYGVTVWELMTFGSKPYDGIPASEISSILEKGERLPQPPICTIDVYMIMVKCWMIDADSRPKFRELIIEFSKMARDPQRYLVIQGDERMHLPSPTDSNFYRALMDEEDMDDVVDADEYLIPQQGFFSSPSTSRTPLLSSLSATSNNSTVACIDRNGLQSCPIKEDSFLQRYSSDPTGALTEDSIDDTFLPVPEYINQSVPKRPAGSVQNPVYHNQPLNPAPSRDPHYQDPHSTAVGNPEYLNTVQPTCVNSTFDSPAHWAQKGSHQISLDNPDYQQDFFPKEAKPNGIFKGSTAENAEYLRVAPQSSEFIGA
Procedure: as §1, §2, §3, §4, §5, §6, §7, §8

HT-29 tumor cells = experiment: Cell growth inhibition assay (CellTiter-Glo), HT-29; details: Homo sapiens, HT-29, 72 h, read-out: Activity in HT-29 Tumor Cells;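 further: ATP content read by luminescence as proxy for cell number, growth inhibition versus DMSO vehicle wells, 0.2% DMSO final, nine serial threefold compound dilutions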
B-Raf = B-Raf (Homo sapiens, UniProt P15056); experiment: B-Raf Accelerated MEK ATPase assay (BRAMA); format: biochemical; details: BRAMA enzyme assay; class by pIC50; read-out: B-Raf Activity
B-Raf, sequence (P15056 whole entry): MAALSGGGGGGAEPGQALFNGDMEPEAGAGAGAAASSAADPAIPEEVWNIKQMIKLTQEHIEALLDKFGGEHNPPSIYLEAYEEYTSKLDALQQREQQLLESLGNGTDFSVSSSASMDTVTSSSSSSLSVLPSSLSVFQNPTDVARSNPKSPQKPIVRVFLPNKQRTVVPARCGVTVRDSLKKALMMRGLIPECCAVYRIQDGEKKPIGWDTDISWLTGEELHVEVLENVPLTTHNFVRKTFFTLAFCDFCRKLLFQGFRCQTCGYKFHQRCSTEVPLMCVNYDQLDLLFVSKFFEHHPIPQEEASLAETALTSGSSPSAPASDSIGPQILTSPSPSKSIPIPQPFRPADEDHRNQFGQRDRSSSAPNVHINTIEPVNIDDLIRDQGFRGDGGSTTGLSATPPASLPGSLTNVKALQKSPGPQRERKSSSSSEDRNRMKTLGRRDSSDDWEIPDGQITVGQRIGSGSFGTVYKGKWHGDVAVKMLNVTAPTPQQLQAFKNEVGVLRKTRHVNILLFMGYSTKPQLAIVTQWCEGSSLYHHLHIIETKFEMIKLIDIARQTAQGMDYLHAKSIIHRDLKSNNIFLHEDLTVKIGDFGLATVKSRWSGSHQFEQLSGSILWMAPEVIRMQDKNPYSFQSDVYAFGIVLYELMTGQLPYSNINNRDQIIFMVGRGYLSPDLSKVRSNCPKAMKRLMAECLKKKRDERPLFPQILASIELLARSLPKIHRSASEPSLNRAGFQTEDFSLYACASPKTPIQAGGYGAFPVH
In short: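 B-Raf activity read as intrinsic MEK ATPase: catalytic activated RAF with non-phosphorylated MEK drives ADP formation, coupled through pyruvate kinase and lactate dehydrogenase to NADH oxidation, independent of ERK phosphorylation.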

SK-MEL-3 tumor cells = experiment: Cell growth inhibition assay (CellTiter-Glo), SK-MEL-3; details: Homo sapiens, SK-MEL3, 72 h, read-out: Activity in SK-MEL-3 Tumor Cells;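 further: human melanoma cells grown with compound for 3 days in 0.2% DMSO, total ATP read by luminescence as proxy for cell number, growth inhibition versus DMSO-treated wells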

| Structure (SMILES) | IC50 (A375P tumor cells) | IC50 (SK-MEL-28 tumor cells) | IC50 (Colo205 tumor cells) | IC50 (ErbB2) | IC50 (EGFR) | IC50 (HT-29 tumor cells) | IC50 (B-Raf) | IC50 (SK-MEL-3 tumor cells) |
| --- | --- | --- | --- | --- | --- | --- | --- | --- |
| CCNc1nc(-c2cc(OC)cc(OC)c2)c(-c2ccnc(Nc3cc(F)c(N4CCN(CCS(C)(=O)=O)CC4)c(F)c3)n2)o1 [Example 91] | 500 to 5000 nM | 500 to 5000 nM | < 500 nM | > 1000 nM | > 1000 nM | 500 to 5000 nM | < 100 nM | < 500 nM |
| CCc1nc(-c2cc(C)cc(OC)c2)c(-c2ccnc(Nc3ccc(OCCO)c(C#N)c3)n2)s1 [Example 107] | 500 to 5000 nM | 500 to 5000 nM | < 500 nM | > 1000 nM | > 1000 nM | < 500 nM | < 100 nM | < 500 nM |
| CCNc1nc(-c2cc(OC)cc(OC)c2)c(-c2ccnc(Nc3ccc(N4CCOCC4)c(F)c3)n2)o1 [Example 118] | 500 to 5000 nM | 500 to 5000 nM | 500 to 5000 nM | > 1000 nM | > 1000 nM | 500 to 5000 nM | < 100 nM | 500 to 5000 nM |

Other lines, results leading:

| IC50 (A375P tumor cells) | IC50 (SK-MEL-28 tumor cells) | IC50 (Colo205 tumor cells) | IC50 (ErbB2) | IC50 (EGFR) | IC50 (HT-29 tumor cells) | IC50 (B-Raf) | IC50 (SK-MEL-3 tumor cells) | Structure (SMILES) |
| --- | --- | --- | --- | --- | --- | --- | --- | --- |
| 500 to 5000 nM | 500 to 5000 nM | 500 to 5000 nM | < 100 nM | 100 to 1000 nM | < 500 nM | < 100 nM | < 500 nM | Fc1cc(Nc2nccc(-c3sc(N4CCCC4)nc3-c3cccc(Cl)c3)n2)ccc1OCCN1CCCC1 [Example 103] |
| 500 to 5000 nM | 500 to 5000 nM | 500 to 5000 nM | > 1000 nM | > 1000 nM | < 500 nM | < 100 nM | < 500 nM | CCNc1nc(-c2cc(OC)cc(OC)c2)c(-c2ccnc(Nc3ccc(OC4CCN(CCO)CC4)c(F)c3)n2)o1 [Example 124] |

— patent US20110190280A1, “Thiazole And Oxazole Kinase Inhibitors” (priority 2007, published 2011)
